In ChEMBL document CHEMBL1201862, “PubChem BioAssay data set” (2004):
The source made the active and inactive calls.

Assays:
[1] = test system: HEK293; assay: inhibition of NOD1-driven NF-kB reporter – cell-based, luminescence, uHTS, primary screen (AID 1578); type: functional; conditions: Homo sapiens
[2] = test system: HEK293; assay: NOD2 signaling inhibitors in MDP-stimulated cells, cell-based, uHTS, luminescence (AID 2001); type: functional; conditions: Homo sapiens
[3] = test system: HEK293; assay: cells; type: functional, cell-based; conditions: Homo sapiens
[4] = test system: HEK293; assay: cells; conditions: Homo sapiens
[5] = test system: HEK293; assay: cells; conditions: Homo sapiens; remark: listed apart in the source
[6] = test system: HEK293; assay: cells; type: functional, cell-based; conditions: Homo sapiens; remark: listed apart in the source
[7] = biological target: T1, Protein RecA (Mycobacterium tuberculosis, UniProt P9WHJ3); assay: Fluorescence Cell-Free Homogeneous Dose Retest to Identify Inhibitors of RecA-Intein Splicing Activity. [Related pubchem assays (depositor defined):AID2097, AID2223, AID489010, AID492950]; type: functional
T1 sequence (P9WHJ3 whole entry): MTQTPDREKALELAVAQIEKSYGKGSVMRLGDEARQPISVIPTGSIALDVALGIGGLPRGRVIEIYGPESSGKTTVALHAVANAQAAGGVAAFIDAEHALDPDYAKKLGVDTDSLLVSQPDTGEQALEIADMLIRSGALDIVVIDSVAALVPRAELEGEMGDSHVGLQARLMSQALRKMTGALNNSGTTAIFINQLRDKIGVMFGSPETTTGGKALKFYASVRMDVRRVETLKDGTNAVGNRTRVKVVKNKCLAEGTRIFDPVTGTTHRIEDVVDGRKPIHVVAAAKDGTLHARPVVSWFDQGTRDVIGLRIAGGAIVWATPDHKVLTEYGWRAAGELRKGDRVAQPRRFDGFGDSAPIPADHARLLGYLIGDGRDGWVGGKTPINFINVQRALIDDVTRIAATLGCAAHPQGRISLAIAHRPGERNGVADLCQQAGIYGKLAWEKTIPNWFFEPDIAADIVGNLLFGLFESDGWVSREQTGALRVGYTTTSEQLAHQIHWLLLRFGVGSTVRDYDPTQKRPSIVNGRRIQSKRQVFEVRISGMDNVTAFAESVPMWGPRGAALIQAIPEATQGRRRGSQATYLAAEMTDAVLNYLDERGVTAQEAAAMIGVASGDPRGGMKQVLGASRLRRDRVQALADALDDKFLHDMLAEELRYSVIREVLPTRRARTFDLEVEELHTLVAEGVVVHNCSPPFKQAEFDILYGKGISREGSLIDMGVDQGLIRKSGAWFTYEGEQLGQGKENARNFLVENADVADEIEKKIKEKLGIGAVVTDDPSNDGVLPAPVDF

[8] = biological target: T2, Replicative DNA helicase DnaB (Mycobacterium tuberculosis, UniProt P9WMR3); assay: DnaB intein splicing inhibitors, dose response, biochemical, cell-free fluorescence (AID 449749); type: functional
T2 sequence (P9WMR3 whole entry): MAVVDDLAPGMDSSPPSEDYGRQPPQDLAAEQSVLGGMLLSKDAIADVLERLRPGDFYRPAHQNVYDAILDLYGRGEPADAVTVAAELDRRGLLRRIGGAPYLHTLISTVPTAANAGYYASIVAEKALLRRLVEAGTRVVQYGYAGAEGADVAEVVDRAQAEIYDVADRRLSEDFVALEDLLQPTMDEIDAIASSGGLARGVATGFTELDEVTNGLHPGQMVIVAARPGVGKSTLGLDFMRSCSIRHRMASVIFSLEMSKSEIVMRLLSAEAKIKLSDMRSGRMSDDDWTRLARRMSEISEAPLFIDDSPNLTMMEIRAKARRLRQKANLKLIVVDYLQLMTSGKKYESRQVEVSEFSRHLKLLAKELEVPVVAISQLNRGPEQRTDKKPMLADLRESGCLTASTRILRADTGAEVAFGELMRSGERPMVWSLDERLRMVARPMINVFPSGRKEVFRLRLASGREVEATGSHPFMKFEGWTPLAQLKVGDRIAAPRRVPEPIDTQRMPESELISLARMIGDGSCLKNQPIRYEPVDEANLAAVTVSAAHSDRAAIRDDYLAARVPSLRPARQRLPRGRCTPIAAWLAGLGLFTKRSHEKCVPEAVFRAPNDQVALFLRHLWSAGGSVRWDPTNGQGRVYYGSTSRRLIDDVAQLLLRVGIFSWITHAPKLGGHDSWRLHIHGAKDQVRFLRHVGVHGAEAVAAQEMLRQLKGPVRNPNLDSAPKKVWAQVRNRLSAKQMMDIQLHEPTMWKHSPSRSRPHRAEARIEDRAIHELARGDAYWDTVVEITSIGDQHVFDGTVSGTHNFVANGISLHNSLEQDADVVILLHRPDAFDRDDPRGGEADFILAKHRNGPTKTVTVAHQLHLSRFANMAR

[9] = biological target: Heat shock 70 kDa protein 1A (Homo sapiens, UniProt P0DMV8); assay: inhibition of Hsp70 binding activity – biochemical, fluorescence polarization, SAR follow-up (AID 1072)
Chain of Heat shock 70 kDa protein 1A (P0DMV8 whole entry): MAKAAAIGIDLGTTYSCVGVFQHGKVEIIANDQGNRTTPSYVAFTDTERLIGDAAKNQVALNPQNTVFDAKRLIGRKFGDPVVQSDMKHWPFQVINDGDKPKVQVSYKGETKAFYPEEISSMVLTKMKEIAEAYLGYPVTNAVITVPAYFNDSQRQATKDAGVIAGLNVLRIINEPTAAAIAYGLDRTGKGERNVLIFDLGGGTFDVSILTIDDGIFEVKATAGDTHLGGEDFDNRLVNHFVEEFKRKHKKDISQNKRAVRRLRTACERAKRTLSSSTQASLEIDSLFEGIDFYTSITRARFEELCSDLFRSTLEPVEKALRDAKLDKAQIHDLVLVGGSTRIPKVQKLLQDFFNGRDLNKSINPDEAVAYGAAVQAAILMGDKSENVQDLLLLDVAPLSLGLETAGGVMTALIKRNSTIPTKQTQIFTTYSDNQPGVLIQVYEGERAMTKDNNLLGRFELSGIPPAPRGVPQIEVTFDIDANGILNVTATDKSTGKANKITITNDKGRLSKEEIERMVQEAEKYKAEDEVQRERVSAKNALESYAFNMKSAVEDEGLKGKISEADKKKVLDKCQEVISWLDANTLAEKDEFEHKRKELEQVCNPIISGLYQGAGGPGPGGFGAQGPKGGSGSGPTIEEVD

[10] = biological target: Heat shock cognate 71 kDa protein (Homo sapiens, UniProt P11142); assay: In Vitro Hsc70 Dose Response Fluorescence Polarization Assay. [Related pubchem assays: 1072 ]
Chain of Heat shock cognate 71 kDa protein (P11142 whole entry): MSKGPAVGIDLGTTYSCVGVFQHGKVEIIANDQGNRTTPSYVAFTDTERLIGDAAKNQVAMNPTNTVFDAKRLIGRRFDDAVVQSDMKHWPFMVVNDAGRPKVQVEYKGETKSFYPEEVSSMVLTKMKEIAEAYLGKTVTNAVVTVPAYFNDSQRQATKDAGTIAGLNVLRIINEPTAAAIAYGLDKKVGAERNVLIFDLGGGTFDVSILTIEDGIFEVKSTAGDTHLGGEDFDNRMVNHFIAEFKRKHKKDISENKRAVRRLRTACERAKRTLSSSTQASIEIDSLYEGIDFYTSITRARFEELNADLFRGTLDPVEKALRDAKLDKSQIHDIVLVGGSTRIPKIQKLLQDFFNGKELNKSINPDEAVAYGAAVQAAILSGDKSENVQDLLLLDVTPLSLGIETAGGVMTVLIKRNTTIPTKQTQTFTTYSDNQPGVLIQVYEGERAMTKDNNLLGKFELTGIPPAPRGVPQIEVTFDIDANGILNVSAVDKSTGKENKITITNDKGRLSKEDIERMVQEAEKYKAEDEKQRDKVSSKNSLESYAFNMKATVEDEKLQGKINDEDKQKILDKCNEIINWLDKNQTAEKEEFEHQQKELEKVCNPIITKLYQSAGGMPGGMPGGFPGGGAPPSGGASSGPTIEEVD

[11] = biological target: T3, Dual specificity protein phosphatase 6 (Rattus norvegicus, UniProt Q64346); type: functional
T3 sequence (Q64346 whole entry): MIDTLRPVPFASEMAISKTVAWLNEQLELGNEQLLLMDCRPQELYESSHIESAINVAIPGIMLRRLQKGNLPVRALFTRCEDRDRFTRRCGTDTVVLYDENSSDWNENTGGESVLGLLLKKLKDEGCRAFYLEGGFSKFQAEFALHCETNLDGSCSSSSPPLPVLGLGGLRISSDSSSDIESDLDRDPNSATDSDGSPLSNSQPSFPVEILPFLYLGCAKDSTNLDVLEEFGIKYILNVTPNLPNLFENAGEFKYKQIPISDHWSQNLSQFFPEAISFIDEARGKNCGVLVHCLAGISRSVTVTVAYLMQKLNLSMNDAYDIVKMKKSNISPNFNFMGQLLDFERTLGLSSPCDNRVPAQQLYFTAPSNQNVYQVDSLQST

[12] = biological target: Glyceraldehyde-3-phosphate dehydrogenase (Homo sapiens, UniProt P04406)
Chain of Glyceraldehyde-3-phosphate dehydrogenase (P04406 whole entry): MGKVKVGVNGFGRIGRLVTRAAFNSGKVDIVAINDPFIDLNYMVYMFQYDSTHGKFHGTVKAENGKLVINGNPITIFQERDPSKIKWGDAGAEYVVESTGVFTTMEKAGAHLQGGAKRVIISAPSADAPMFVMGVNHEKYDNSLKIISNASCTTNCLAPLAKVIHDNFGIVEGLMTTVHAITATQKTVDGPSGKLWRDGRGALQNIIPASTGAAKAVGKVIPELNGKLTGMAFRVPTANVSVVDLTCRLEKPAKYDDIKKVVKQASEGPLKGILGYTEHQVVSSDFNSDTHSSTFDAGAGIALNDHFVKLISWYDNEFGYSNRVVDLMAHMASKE

[13] = biological target: T4, Tyrosine-protein phosphatase non-receptor type 7 (Homo sapiens, UniProt P35236); type: functional
T4 sequence (P35236 whole entry): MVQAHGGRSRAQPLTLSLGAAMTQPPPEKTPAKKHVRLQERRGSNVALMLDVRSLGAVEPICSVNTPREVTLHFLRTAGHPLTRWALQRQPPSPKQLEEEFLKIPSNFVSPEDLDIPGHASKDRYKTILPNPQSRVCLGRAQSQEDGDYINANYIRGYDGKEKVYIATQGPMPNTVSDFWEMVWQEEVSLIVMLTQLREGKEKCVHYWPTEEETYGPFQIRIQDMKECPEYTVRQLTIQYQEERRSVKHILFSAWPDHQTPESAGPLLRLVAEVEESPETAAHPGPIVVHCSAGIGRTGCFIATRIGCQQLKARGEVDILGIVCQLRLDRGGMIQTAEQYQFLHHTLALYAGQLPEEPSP

[14] = biological target: T3, Dual specificity protein phosphatase 6
[15] = cells; type: functional
[16] = test system: HEK293; assay: HEK293T cell viability loss, resazurin readout – resazurin fluorescence, cytotoxicity control for NF-kB activator project, SAR follow-up (AID 493251); type: functional, cell-based; conditions: Homo sapiens
[17] = biological target: T5, Microphthalmia-associated transcription factor (Homo sapiens, UniProt O75030); assay: reducers of TRPM1 reporter luminescence, concentration series – cell-based, SK-MEL-5, cherry-picked, set 3, MITF inhibitor project, dose response (AID 493073); type: functional;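 note: SK-MEL-5 melanoma cells with luciferase driven by the MITF target TRPM1 promoter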
T5 sequence (O75030 whole entry): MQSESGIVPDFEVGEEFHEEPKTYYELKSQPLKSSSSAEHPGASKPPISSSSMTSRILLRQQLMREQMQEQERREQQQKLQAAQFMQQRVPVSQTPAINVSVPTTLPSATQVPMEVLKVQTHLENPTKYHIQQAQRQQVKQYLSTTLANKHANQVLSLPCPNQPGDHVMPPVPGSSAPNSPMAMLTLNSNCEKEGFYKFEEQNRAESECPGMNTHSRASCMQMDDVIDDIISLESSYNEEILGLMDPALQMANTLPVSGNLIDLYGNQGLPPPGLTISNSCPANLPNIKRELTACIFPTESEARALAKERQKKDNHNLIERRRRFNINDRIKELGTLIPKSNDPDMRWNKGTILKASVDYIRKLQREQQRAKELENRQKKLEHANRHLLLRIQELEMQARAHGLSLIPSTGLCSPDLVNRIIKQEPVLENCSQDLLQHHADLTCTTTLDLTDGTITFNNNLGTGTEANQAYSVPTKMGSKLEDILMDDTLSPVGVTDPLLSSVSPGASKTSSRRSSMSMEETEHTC

[18] = test system: HEK293; assay: SAR Analysis of small molecule inhibitors of T-cell specific antigen receptor-induced NF-kB activation in a HEK-293T cell line using a luminescence assay - Set 2. [Related pubchem assays (depositor defined):AID435003, AID435012, AID489026]; type: functional, cell-based
[19] = THP-1 cell cytotoxicity, dose response, cytotoxicity control for non-replicating M. tuberculosis project (AID 489025); type: functional
[20] = Vero E6 cell cytotoxicity, dose response, cytotoxicity control for non-replicating M. tuberculosis project, secondary assay (AID 492998); type: functional, VeroE6; conditions: Vero C1008
[21] = test system: Jurkat; assay: SAR Analysis of small molecule inhibitors of T-cell specific antigen receptor-induced NF-kB activation in a Jurkat cell line using a luminescence assay - Set 2. [Related pubchem assays (depositor defined):AID435003, AID435012, AID465]; type: functional, cell-based
[22] = MIN6 cell viability loss – mouse insulinoma, cytotoxicity control, dose response (AID 2122); type: functional;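 note: confirmatory high-throughput counterscreen run to flag cytotoxic compounds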
[23] = Luminescence Cell-Based Dose Retest to Confirm Inhibitors of Cancer Stem Cells. [Related pubchem assays (depositor defined):AID2717, AID2721]; type: functional; conditions: Homo sapiens
[24] = DRD fibroblast viability loss – cell-based, non-viral oncogenic, luminescence, dose response (AID 1934); type: functional; conditions: Homo sapiens
[25] = test system: BJ; assay: cells; type: functional, cell-based; conditions: Homo sapiens
[26] = test system: INS1; assay: INS-1E survival protection against cytokine death – cell-based, luminescence, retest, dose response (AID 449756); type: functional; conditions: Rattus norvegicus;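 note: cell death triggered by IL-1 beta plus TNF-alpha plus IFN-gamma mixture; protective hits raise ATP signal compared with cytokine alone wells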
[27] = decrease of insulin promoter-GFP reporter – imaging, high-content screening, mouse beta cells (AID 1628); type: functional; conditions: MIN6
[28] = test system: BJ; assay: BJ-TERT fibroblast viability loss – cell-based, RAS-independent, luminescence, dose response (AID 1933); type: functional; conditions: Homo sapiens
[29] = blockers of HIV-1 envelope-mediated cell-cell fusion – cherry-pick, dose response (AID 652057); type: functional, cell-based
[30] = off-target signal loss in HeLa-CEM21 co-culture – HeLa F-luc CTL cells, cherry-picked, counter-screen for HIV-1 Env fusion inhibitor project, dose response (AID 652040); type: functional, cell-based;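 note: potency for signal decrease marking cytotoxic or nonspecific inhibition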
[31] = blockers of HIV-1 ZM109 envelope-driven cell-cell fusion – HeLa effector, CEM target cells, luciferase, cherry-pick, dose response (AID 652058); type: functional, cell-based;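 note: luciferase signal from HIV-1 Env mediated cell-cell fusion of effector and target cells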
[32] = HIV-1 AD8 envelope cell-cell fusion blockers – cherry-pick, dose response (AID 652062); type: functional, cell-based;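 note: luciferase signal from cell-cell fusion driven by HIV-1 clade B AD8 Env; potency is for inhibitors of fusion seen as a drop in luminescence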
[33] = biological target: Dual specificity tyrosine-phosphorylation-regulated kinase 1A (Rattus norvegicus, UniProt Q63470); type: biochemical, Homo sapiens

O=C(CCl)Nc1cc(S(=O)(=O)N2CCCCCC2)ccc1Cl
active: EC50 [1] 9.38 µM | IC50 [3] 7.86 µM | EC50 [7] 2.03 µM | AC50 [8] 9.12 µM
inactive: IC50 [2] > 20 µM | EC50 [4] > 59.6 µM | EC50 [5] > 59.6 µM | IC50 [6] > 20 µM

Cc1cc([N+](=O)[O-])cc2c1NC(C(=O)O)C1CC=CC21 (stereo not drawn)
active: IC50 [9] 24.3 µM | IC50 [10] 117 µM
inactive: IC50 [11] > 100 µM | IC50 [14] > 100 µM
> 100 µM (not active): IC50 [12] | IC50 [13]

Cc1cccc(NC(=O)c2ccc([N+](=O)[O-])o2)c1C
inactive: IC50 [16] > 80 µM | IC50 ([18]; Homo sapiens, HEK293) 69.2 µM | IC50 ([18]; hek293) 63.1 µM
active: IC50 [15] 10.8 µM | AC50 [17] 14.8 µM | CC50 [19] 20.5 µM | CC50 [20] 8.76 µM | IC50 ([21]; Homo sapiens, Jurkat) 17.8 µM | IC50 ([21]; jurkat) 14.6 µM

COc1ccc(C)cc1NS(=O)(=O)c1ccc(NC(=O)CN(c2cc([N+](=O)[O-])ccc2C)S(C)(=O)=O)cc1
active: IC50 [22] 1.2 µM | AC50 [23] 1.8 µM | EC50 [24] 19.7 µM | EC50 [25] 2.75 µM | AC50 [26] 0.846 µM | IC50 [27] 1.1 µM | EC50 [28] 21 µM

CCN1C(=O)[C@H]2[C@@H](c3ccc(C)cc3)N3C(=O)N(c4cccc(Cl)c4)C(=O)[C@@]3(CC)[C@H]2C1=O
inactive: EC50 [4] > 59.6 µM | EC50 [5] > 59.6 µM
active: AC50 [29] 2.33 µM | AC50 [30] 3.98 µM | AC50 [31] 2.06 µM | AC50 [32] 4.82 µM

O=C(O)C1Nc2ccccc2C2C=CCC12 (stereo not drawn)
> 100 µM (not active): IC50 [10] | IC50 [12]
active: IC50 [9] 7.14 µM | IC50 [11] 25.2 µM | IC50 [13] 6.05 µM | IC50 [14] 50.8 µM

c1cncc(-c2nc3ccccc3[nH]2)c1
inactive: AC50 [33] > 120 µM
